Series [1] relates to human pancreatic cancer cell line (ASPC-1). The series is described as follows: Cytotoxic activity by CCK-8 method. The series is classed as cell-based. Here is the method: The cytotoxic effects of all compounds against human pancreatic cancer cell line (ASPC-1) were evaluated by CCK-8 method.
The next series has as its system coronavirus (HCoV-OC43). The series is described as follows: microbe, parasite or virus in culture. The conditions noted are these: for SI (TC50/IC50): HCoV-OC43 in H460 cells. It is filed as cell-based. How it is done:
(§1) Briefly, the H460 cells were inoculated into 96 well culture plates and cultured at 35°C under 5% CO2 condition, and infected by HCoV-OC43 virus with 100 times 50% tissue culture infective dose (TCID50) 24 h later; then the positive control drugs and test compounds were added. The half inhibitory concentration (IC50) and the half toxic concentration (TC50) were determined by the Reed and Muench method. The selectivity index (SI) was calculated as the ratio of TC50/IC50.

Another series concerns H460 cells. Briefly: Half toxic concentration in the antiviral assay host cells. It is filed as cell-based. How it is done: as §1
Series [2] has as its system pancreatic cancer cell line PANC-1. Also on record: method as in Wang et al., 2019. To be noted: PANC-1 cells; ref Wang et al., 2019; cited from earlier work.
The mark [3] stands for this setting: Homo sapiens, ASPC1, AsPC-1 cells.
[4] abbreviates: Betacoronavirus 1, OC43, NCI-H460, HCoV-OC43 (100 TCID50) in H460 cells.

The values below come from PMC9877305, “Cytotoxic hexadepsipeptides and anti-coronaviral 4-hydroxy-2-pyridones from an endophytic Fusarium sp” (Frontiers in Chemistry, 2023).

Converted amounts (≈) assume the structure as drawn. Where only a bound is given, the exact number is not on record here.

Regarding `CC(C)C(O)C(=O)N(C)C(Cc1ccccc1)C(=O)OC(C(=O)N(C)C(Cc1ccccc1)C(=O)OC(C(=O)N(C)C(Cc1ccccc1)C(=O)O)C(C)C)C(C)C` (centres unmarked) [Compound 1, Secobeauvericin A], in series [1] (setting [3]), the IC50 was over 90 µM.

`CC(C)C1OC(=O)C(Cc2ccccc2)NC(=O)C(C(C)C)OC(=O)C(Cc2ccccc2)N(C)C(=O)C(C(C)C)OC(=O)C(Cc2ccccc2)NC1=O` (centres unmarked) [Compound 2, Beauvericin M] gave a melting point of 85 to 86 °C. Besides, the IC50 in series [1] (setting [3]) was over 90 µM.

Take `CC[C@H](C)C[C@@H](C)/C=C(\C)[C@@H]1O[C@H](c2c3c(cn(C)c2=O)[C@@]2(OC)CCC(=O)C[C@@H]2O3)CC[C@H]1C` [Compound 9, (–)-fusoxypyridone]: the results for the IC50 (in the series on coronavirus (HCoV-OC43) (setting [4]); in series [1] (setting [3])) were over 6.67 µg/mL and 18.8 µM, respectively. In the series on H460 cells, the TC50 was found to be 11.55 µg/mL (≈ 23.8 µM).

For the compound `CC[C@H](C)C[C@@H](C)/C=C(\C)[C@@H]1O[C@H](c2c(O)c(-c3ccc(O)cc3)cn(C)c2=O)CC[C@H]1C` [Compound 6, (–)-sambutoxin], the IC50 in series [1] (setting [3]) was over 90 µM. The same compound returned a TC50 in the series on H460 cells of under 0.02 µg/mL.

For the compound `NC(=O)c1ncn([C@@H]2O[C@H](CO)[C@@H](O)[C@H]2O)n1` [Ribavirin, ribavirin, reference compound], the IC50 with coronavirus (HCoV-OC43) (setting [4]) worked out at 19.2 µg/mL (≈ 78.8 µM). Further, the “SI (TC50/IC50)” value with coronavirus (HCoV-OC43) came out at 5.2. Besides, the TC50 in the series on H460 cells came to 100 µg/mL (≈ 409 µM).

As to `CC[C@H](C)C[C@@H](C)/C=C(\C)[C@@H]1O[C@H](c2c(O)c([C@@]3(O)CCC(=O)C[C@@H]3O)cn(C)c2=O)CC[C@H]1C` [Compound 7, (–)-oxysporidinone], the values for the IC50 (with coronavirus (HCoV-OC43) (setting [4]); in series [1] (setting [3])) were 13.3 µg/mL (≈ 27.2 µM) and 17.6 µM, respectively. Besides, the “SI (TC50/IC50)” value with coronavirus (HCoV-OC43) was 1.7. The compound further gave a TC50 in the series with H460 cells of 23.09 µg/mL (≈ 47.2 µM).

For beauvericin [Compound 4], in series [1] (AsPC-1 cells), the IC50 was 3.45 µM.

Compound `CC1OC(=O)C(Cc2ccccc2)N(C)C(=O)C(C(C)C)OC(=O)C(Cc2ccccc2)N(C)C(=O)C(C(C)C)OC(=O)C(Cc2ccccc2)N(C)C1=O` (centres unmarked) [Compound 3, Beauvericin N] returned a melting point of 82 to 83 °C. Besides, the IC50 in series [1] (setting [3]) was over 90 µM.

As to `CC(C)=CCc1c(O)cc(O)c(C=O)c1C(=O)c1c(O)cc(C)c(Cl)c1O` [E], in series [2], the IC50 was 7.2 µM.

In turn, `CC(C)C1OC(=O)C(Cc2ccccc2)N(C)C(=O)C(C(C)C)OC(=O)C(Cc2ccccc2)N(C)C(=O)C(C(C)C)OC(=O)C(Cc2ccccc2)NC1=O` (centres unmarked) [Compound 5, beauvericin D] gave an IC50 in series [1] (setting [3]) of over 90 µM.

Turning to `Nc1ccn([C@@H]2O[C@H](CO)[C@@H](O)C2(F)F)c(=O)n1` [Gemcitabine, gemcitabine, reference compound], in series [1] (setting [3]), the IC50 came to 1.53 µM.

Take `CC[C@H](C)C[C@@H](C)/C=C(\C)[C@@H]1O[C@H](c2c3c(cn(C)c2=O)[C@@]2(O)CCC(=O)C[C@@H]2O3)CC[C@H]1C` [Compound 8, fusapyridon A]: the IC50 with coronavirus (HCoV-OC43) (setting [4]) is 6.67 µg/mL (≈ 14.1 µM); in the series on coronavirus (HCoV-OC43) (Betacoronavirus 1, OC43, NCI-H460, HCoV-OC43, unit as printed in running text), 6.65 µg/mL (≈ 14.1 µM); in series [1] (setting [3]), 29.7 µM. Further, in the series with coronavirus (HCoV-OC43), the “SI (TC50/IC50)” value came out at 1.7. This compound yielded a TC50 in the series on H460 cells of 11.55 µg/mL (≈ 24.5 µM).

What is called IC50 is the concentration at which inhibition is half-maximal. What is called melting point is the temperature of the solid-liquid transition.
